The values that follow come from PubChem BioAssay AID1259407 (Chemical Carcinogenesis Research Information System (CCRIS), 2018).

The structures appear in SMILES notation. The source made the active and inactive calls. The rule behind the calls is not given here.

This series deals with CCRIS mutagenicity, Ames/micronucleus/aberration tests. Briefly: CCRIS mutagenicity studies.
Where [1] appears, read: Test System: AMES SALMONELLA TYPHIMURIUM, Strain/Indicator: TA98, Metabolic Activation: NONE, Method: PREINCUBATION
Where [2] appears, read: Test System: AMES SALMONELLA TYPHIMURIUM, Strain/Indicator: TA100, Metabolic Activation: NONE, Method: PREINCUBATION
Where [3] appears, read: Test System: AMES SALMONELLA TYPHIMURIUM, Strain/Indicator: TA98, Metabolic Activation: NONE, Method: STANDARD PLATE.
[4] abbreviates: Test System: AMES SALMONELLA TYPHIMURIUM, Strain/Indicator: TA100, Metabolic Activation: NONE, Method: STANDARD PLATE.
[5] abbreviates: Test System: AMES SALMONELLA TYPHIMURIUM, Strain/Indicator: TA102, Metabolic Activation: NONE, Method: STANDARD PLATE.
The mark [6] stands for this setting: Test System: AMES SALMONELLA TYPHIMURIUM, Strain/Indicator: TA1535, Metabolic Activation: NONE, Method: PREINCUBATION
[7] abbreviates: Test System: AMES SALMONELLA TYPHIMURIUM, Strain/Indicator: TA1537, Metabolic Activation: NONE, Method: PREINCUBATION
Where [8] appears, read: Test System: E. COLI, Strain/Indicator: WP2 UVRA, Metabolic Activation: NONE, Method: PREINCUBATION
[9] abbreviates: Test System: AMES SALMONELLA TYPHIMURIUM, Strain/Indicator: TA98, Metabolic Activation: RAT, LIVER, S-9, AROCLOR 1254, Method: STANDARD PLATE.
Where [10] appears, read: Test System: AMES SALMONELLA TYPHIMURIUM, Strain/Indicator: TA100, Metabolic Activation: RAT, LIVER, S-9, AROCLOR 1254, Method: STANDARD PLATE.

As for `CC(C)(C)OOC1(C)C=C(C(C)(C)C)C(=O)C(C(C)(C)C)=C1`, the mutagenic call is, setting by setting: under setting [1], “inactive; negative”; (Test System: AMES SALMONELLA TYPHIMURIUM, Strain/Indicator: TA98, Metabolic Activation: RAT, LIVER, S-9, Method: PREINCUBATION) “inactive; negative”; under setting [2], “inactive; negative”; (Test System: AMES SALMONELLA TYPHIMURIUM, Strain/Indicator: TA100, Metabolic Activation: RAT, LIVER, S-9, Method: PREINCUBATION) “inactive; negative”.
As to `C[C@]1(Cn2ccnn2)[C@H](C(=O)O)N2C(=O)C[C@H]2S1(=O)=O`, the mutagenic call is, setting by setting: (Test System: AMES SALMONELLA TYPHIMURIUM, Strain/Indicator: TA98, Metabolic Activation: HAMSTER, LIVER, S-9, AROCLOR 1254, Method: STANDARD PLATE) “inactive; negative”; under setting [1], “inactive; negative”; under setting [3], “inactive; negative”; (Test System: AMES SALMONELLA TYPHIMURIUM, Strain/Indicator: TA98, Metabolic Activation: S-9, Method: PREINCUBATION) “inactive; negative”; (Test System: AMES SALMONELLA TYPHIMURIUM, Strain/Indicator: TA100, Metabolic Activation: HAMSTER, LIVER, S-9, AROCLOR 1254, Method: STANDARD PLATE) “inactive; negative”; under setting [2], “inactive; negative”. For the same molecule, the mutagenic call runs as follows: under setting [4], “inactive; negative”; (Test System: AMES SALMONELLA TYPHIMURIUM, Strain/Indicator: TA100, Metabolic Activation: S-9, Method: PREINCUBATION) “inactive; negative”; (Test System: AMES SALMONELLA TYPHIMURIUM, Strain/Indicator: TA102, Metabolic Activation: HAMSTER, LIVER, S-9, AROCLOR 1254, Method: STANDARD PLATE) “inactive; negative”; under setting [5], “inactive; negative”; under setting [6], “inactive; negative”; (Test System: AMES SALMONELLA TYPHIMURIUM, Strain/Indicator: TA1535, Metabolic Activation: S-9, Method: PREINCUBATION) “inactive; negative”. Besides, the mutagenic call is “inactive; negative” under setting [7]; “inactive; negative” (Test System: AMES SALMONELLA TYPHIMURIUM, Strain/Indicator: TA1537, Metabolic Activation: S-9, Method: PREINCUBATION); “inactive; negative” under setting [8]; “inactive; negative” (Test System: E. COLI, Strain/Indicator: WP2 UVRA, Metabolic Activation: S-9, Method: PREINCUBATION).
Take `c1ccc2c(c1)cc1c3c2ccc2cccc(c23)C1`: the mutagenic call reads like this: under setting [3], “inactive; negative”; under setting [9], “active; positive”; under setting [10], “active; positive”.
As for `C1=CC2CCCCC2c2ccccc21` (stereo unspecified), the mutagenic call is “active; positive” (Test System: AMES SALMONELLA TYPHIMURIUM, Strain/Indicator: TA98, Metabolic Activation: RAT, LIVER, S-9, SODIUM PHENOBARBITAL AND BETA-NAPHTHOFLAVONE, Method: STANDARD PLATE) and “active; positive” (Test System: AMES SALMONELLA TYPHIMURIUM, Strain/Indicator: TA100, Metabolic Activation: RAT, LIVER, S-9, SODIUM PHEOBARBITAL AND BETA-NAPHTHOFLAVONE, Method: STANDARD PLATE).
Regarding `NN`, the mutagenic call reads like this: (End Point: IN VITRO CHROMOSOMAL ABERRATIONS, Test System: CHL CELLS, Metabolic Activation: NONE) “active; positive (structural changes)”; (End Point: IN VITRO CHROMOSOMAL ABERRATIONS, Test System: CHL CELLS, Metabolic Activation: RAT, LIVER, S-9, SODIUM PHENOBARBITAL AND 5,6-BENZOFLAVONE) “active; positive (structural changes)”; (Test System: AMES SALMONELLA TYPHIMURIUM, Strain/Indicator: G46, Metabolic Activation: HAMSTER, LIVER, HOMOGENATE, Method: PREINCUBATION) “active; positive”; (Test System: AMES SALMONELLA TYPHIMURIUM, Strain/Indicator: G46, Metabolic Activation: MOUSE, LIVER, HOMOGENATE, Method: PREINCUBATION) “active; positive”; (Test System: AMES SALMONELLA TYPHIMURIUM, Strain/Indicator: G46, Metabolic Activation: RAT, LIVER, HOMOGENATE, Method: PREINCUBATION) “active; positive”; (Test System: AMES SALMONELLA TYPHIMURIUM, Strain/Indicator: TA98, Metabolic Activation: RAT LIVER S-9, PHENOBARBITAL AND BETA-NAPHTHOFLAVONE, Method: PREINCUBATION) “inactive; negative”. Also, the mutagenic call (Test System: AMES SALMONELLA TYPHIMURIUM, Strain/Indicator: TA100, Metabolic Activation: RAT LIVER S-9, PHENOBARBITAL AND BETA-NAPHTHOFLAVONE, Method: PREINCUBATION) was “inactive; negative”; the mutagenic call (Test System: AMES SALMONELLA TYPHIMURIUM, Strain/Indicator: TA102, Metabolic Activation: NONE, Method: PREINCUBATION) was “active; positive”; the mutagenic call under setting [5] is “inactive; negative”; the mutagenic call (Test System: AMES SALMONELLA TYPHIMURIUM, Strain/Indicator: TA1535, Metabolic Activation: HAMSTER, LIVER, HOMOGENATE, Method: PREINCUBATION) was “active; positive”; the mutagenic call (Test System: AMES SALMONELLA TYPHIMURIUM, Strain/Indicator: TA1535, Metabolic Activation: MOUSE, LIVER, HOMOGENATE, Method: PREINCUBATION) is “active; positive”; the mutagenic call under setting [6] was “active; positive”. In addition, the mutagenic call runs as follows: (Test System: AMES SALMONELLA TYPHIMURIUM, Strain/Indicator: TA1535, Metabolic Activation: RAT LIVER S-9, PHENOBARBITAL AND BETA-NAPHTHOFLAVONE, Method: PREINCUBATION) “active; positive”; (Test System: AMES SALMONELLA TYPHIMURIUM, Strain/Indicator: TA1535, Metabolic Activation: RAT, LIVER, HOMOGENATE, Method: PREINCUBATION) “active; positive”; under setting [7], “inactive; negative”; (Test System: AMES SALMONELLA TYPHIMURIUM, Strain/Indicator: TA1537, Metabolic Activation: RAT LIVER S-9, PHENOBARBITAL AND BETA-NAPHTHOFLAVONE, Method: PREINCUBATION) “inactive; negative”; (Test System: AMES SALMONELLA TYPHIMURIUM, Strain/Indicator: TA2638, Metabolic Activation: NONE, Method: STANDARD PLATE) “inactive; negative”; (Test System: E. COLI, Strain/Indicator: WP2 (PKM101), Metabolic Activation: NONE, Method: STANDARD PLATE) “active; positive”. The mutagenic call was “active; positive” (Test System: E. COLI, Strain/Indicator: WP2 UVRA (PKM101), Metabolic Activation: NONE, Method: STANDARD PLATE); “active; positive” under setting [8]; “active; positive” (Test System: E. COLI, Strain/Indicator: WP2 UVRA, Metabolic Activation: RAT, LIVER, MICROSOMES, PHENOBARBITAL, Method: PREINCUBATION); “active; positive” (Test System: E.COLI, Strain/Indicator: WP2UVRA, Metabolic Activation: NONE, Method: PREINCUBATION); “active; positive” (Test System: E.COLI, Strain/Indicator: WP2UVRA, Metabolic Activation: RAT LIVER S-9, PHENOBARBITAL AND BETA-NAPHTHOFLAVONE, Method: PREINCUBATION).
Consider `COC(=O)COc1ccc(Cl)cc1Cl`, for which the mutagenic call (Test System: AMES SALMONELLA TYPHIMURIUM, Strain/Indicator: TA97, Metabolic Activation: NONE, Method: STANDARD PLATE) was “inactive; negative”; the mutagenic call (Test System: AMES SALMONELLA TYPHIMURIUM, Strain/Indicator: TA97, Metabolic Activation: RAT, LIVER, S-9, AROCLOR 1254, Method: STANDARD PLATE) was “inactive; negative”; the mutagenic call under setting [3] was “inactive; negative”; the mutagenic call under setting [9] was “inactive; negative”; the mutagenic call under setting [4] is “inactive; negative”; the mutagenic call under setting [10] is “inactive; negative”. Also, the mutagenic call is “inactive; negative” under setting [5] and “inactive; negative” (Test System: AMES SALMONELLA TYPHIMURIUM, Strain/Indicator: TA102, Metabolic Activation: RAT, LIVER, S-9, AROCLOR 1254, Method: STANDARD PLATE).
